Laboratory results reported in the NIST ThermoML archive (doi:10.1016/j.jct.2010.05.002).
Numbers after ± are expanded uncertainties.

Test: molar heat capacity at constant pressure
Settings: 101.33 kPa, Crystal 2, Vacuum adiabatic calorimetry

Cc1ccc(-c2ccccc2)cc1 [4-methylbiphenyl]
Settings | molar heat capacity at constant pressure [J/K/mol]
8.42 K | 3.698 ± 0.26
8.7 K | 3.996 ± 0.27
8.96 K | 4.244 ± 0.28
9.47 K | 4.835 ± 0.3
9.97 K | 5.433 ± 0.33
10.28 K | 5.778 ± 0.34
10.67 K | 6.273 ± 0.36
11.06 K | 6.777 ± 0.38
11.44 K | 7.338 ± 0.4
11.83 K | 7.812 ± 0.41
12.21 K | 8.286 ± 0.41
12.59 K | 8.722 ± 0.44
12.96 K | 9.194 ± 0.47
13.35 K | 9.76 ± 0.48
13.72 K | 10.44 ± 0.51
14.09 K | 10.74 ± 0.52
14.46 K | 11.37 ± 0.52
14.83 K | 11.81 ± 0.56
15.2 K | 12.22 ± 0.57
15.56 K | 12.8 ± 0.59
15.92 K | 13.35 ± 0.6
16.28 K | 13.95 ± 0.63
16.65 K | 14.46 ± 0.66
17.01 K | 14.64 ± 0.65
17.37 K | 15.38 ± 0.69
17.72 K | 16.09 ± 0.71
18.08 K | 16.37 ± 0.73
18.44 K | 17.11 ± 0.75
18.79 K | 17.51 ± 0.76
19.88 K | 19.13 ± 0.83
20.58 K | 20.29 ± 0.87
21.36 K | 21.32 ± 0.9
22.14 K | 22.38 ± 0.95
22.91 K | 23.6 ± 0.99
23.69 K | 24.61 ± 1
24.46 K | 25.76 ± 1.1
25.23 K | 26.8 ± 1.1
26 K | 27.57 ± 1.1
26.76 K | 28.86 ± 1.2
27.53 K | 30.07 ± 1.2
28.29 K | 30.9 ± 1.3
29.05 K | 32.05 ± 1.3
29.81 K | 33.03 ± 1.4
30.57 K | 34.28 ± 0.75
31.33 K | 35.24 ± 0.76
32.09 K | 36.41 ± 0.76
32.86 K | 36.83 ± 0.78
33.62 K | 38.31 ± 0.83
34.37 K | 39.14 ± 0.82
35.13 K | 39.93 ± 0.84
35.88 K | 41.05 ± 0.85
36.64 K | 41.53 ± 0.85
37.39 K | 42.34 ± 0.9
38.14 K | 43.78 ± 0.91
38.9 K | 44.06 ± 0.91
39.65 K | 45.4 ± 0.95
40.4 K | 45.99 ± 0.94
41.15 K | 46.64 ± 0.97
41.9 K | 47.81 ± 1
42.65 K | 48.69 ± 1
43.4 K | 49.76 ± 1
44.15 K | 50.64 ± 1
44.91 K | 50.57 ± 1
45.66 K | 51.28 ± 1.1
46.41 K | 52.33 ± 1.1
47.16 K | 53.31 ± 1.1
47.91 K | 53.96 ± 1.1
48.65 K | 55.09 ± 1.1
49.4 K | 56.25 ± 1.2
50.15 K | 56.83 ± 1.1
50.9 K | 57.26 ± 1.2
51.65 K | 58.12 ± 1.2
52.4 K | 59.37 ± 1.2
53.15 K | 59.9 ± 1.2
53.9 K | 60.72 ± 1.2
54.64 K | 61.66 ± 1.3
55.39 K | 62.7 ± 1.3
56.14 K | 63.64 ± 1.3
56.89 K | 63.48 ± 1.3
57.64 K | 64.25 ± 1.3
58.39 K | 64.5 ± 1.3
59.13 K | 64.98 ± 1.3
59.88 K | 65.47 ± 1.3
60.63 K | 66.03 ± 1.3
61.37 K | 65.92 ± 1.3
62.12 K | 66.39 ± 1.3
62.86 K | 67.01 ± 1.4
63.6 K | 67.59 ± 1.4
64.35 K | 67.75 ± 1.4
65.09 K | 68.24 ± 1.4
65.83 K | 68.99 ± 1.4
66.57 K | 69.46 ± 1.4
67.32 K | 69.91 ± 1.4
68.06 K | 70.28 ± 1.4
68.8 K | 70.75 ± 1.4
69.54 K | 72.08 ± 1.5
70.28 K | 72.22 ± 1.5
71.18 K | 72.29 ± 1.5
72.22 K | 73.13 ± 1.5
73.27 K | 74.21 ± 1.5
74.32 K | 74.62 ± 1.5
75.37 K | 75.51 ± 1.5
76.42 K | 75.54 ± 1.5
77.47 K | 76.16 ± 1.5
78.51 K | 77.53 ± 1.6
78.8 K | 78.32 ± 1.6
79.56 K | 77.92 ± 1.6
80.6 K | 79.11 ± 0.52
81.65 K | 79.67 ± 0.57
82.17 K | 81.46 ± 0.54
83.21 K | 81.22 ± 0.52
84.78 K | 82.63 ± 0.56
85.83 K | 84.24 ± 0.56
87.34 K | 85.25 ± 0.56
88.37 K | 86.4 ± 0.57
89.4 K | 87.09 ± 0.56
90.43 K | 87.85 ± 0.57
91.47 K | 88.19 ± 0.58
92.5 K | 89.19 ± 0.59
93.53 K | 89.62 ± 0.59
94.55 K | 90.59 ± 0.6
95.58 K | 91.13 ± 0.61
96.61 K | 92.3 ± 0.65
97.64 K | 93.83 ± 0.6
98.66 K | 92.61 ± 0.59
99.69 K | 94.23 ± 0.65
100.72 K | 95.15 ± 0.61
101.74 K | 95.13 ± 0.61
102.77 K | 95.55 ± 0.62
104.82 K | 96.61 ± 0.63
105.84 K | 97.41 ± 0.65
106.86 K | 98.57 ± 0.66
107.88 K | 99.36 ± 0.64
108.9 K | 99.57 ± 0.64
109.93 K | 100.46 ± 0.65
110.95 K | 100.63 ± 0.64
111.97 K | 100.49 ± 0.65
112.99 K | 102.03 ± 0.68
114.01 K | 102.56 ± 0.66
115.02 K | 103.36 ± 0.69
116.04 K | 104.67 ± 0.68
117.06 K | 104.77 ± 0.67
118.08 K | 104.33 ± 0.67
119.1 K | 105.95 ± 0.72
120.12 K | 106.87 ± 0.68
121.14 K | 106.67 ± 0.68
122.15 K | 107.47 ± 0.7
123.17 K | 108.38 ± 0.69
124.18 K | 108.38 ± 0.69
125.2 K | 108.94 ± 0.71
126.21 K | 110.22 ± 0.72
127.23 K | 110.82 ± 0.71
128.23 K | 111.43 ± 0.7
129.25 K | 111 ± 0.71
130.26 K | 112.24 ± 0.76
131.27 K | 113.68 ± 0.72
132.28 K | 113.17 ± 0.72
133.29 K | 114.17 ± 0.75
134.3 K | 115.39 ± 0.75
135.31 K | 115.98 ± 0.73
136.32 K | 115.79 ± 0.73
137.33 K | 115.95 ± 0.74
138.33 K | 116.76 ± 0.77
139.34 K | 118.07 ± 0.78
140.34 K | 119.05 ± 0.76
141.35 K | 119.04 ± 0.75
142.35 K | 119.96 ± 0.76
143.36 K | 120 ± 0.76
144.35 K | 120.48 ± 0.76
145.36 K | 120.67 ± 0.77
146.36 K | 122 ± 0.78
147.36 K | 122.17 ± 0.8
148.36 K | 124.22 ± 0.83
149.36 K | 124.87 ± 0.79
150.36 K | 125.07 ± 0.79
151.36 K | 125.72 ± 0.8
153.66 K | 127.07 ± 0.8
154.92 K | 127.26 ± 0.8
155.92 K | 127.72 ± 0.81
156.91 K | 128.68 ± 0.82
157.91 K | 129.05 ± 0.82
158.9 K | 129.98 ± 0.84
159.89 K | 130.91 ± 0.84
162.88 K | 133.43 ± 0.84
163.87 K | 132.72 ± 0.83
164.87 K | 133.55 ± 0.84
165.85 K | 133.77 ± 0.85
166.84 K | 134.91 ± 0.87
167.83 K | 135.89 ± 0.87
169.79 K | 137.42 ± 0.86
170.78 K | 137.22 ± 0.86
171.76 K | 137.79 ± 0.87
172.74 K | 138.45 ± 0.87
173.73 K | 139.11 ± 0.89
174.71 K | 140.53 ± 0.89
175.69 K | 140.7 ± 0.88
176.68 K | 141.47 ± 0.9
177.66 K | 142.43 ± 0.9
178.64 K | 143.15 ± 0.9
179.62 K | 143.76 ± 0.9
180.6 K | 144.25 ± 0.91
181.58 K | 145.06 ± 0.92
182.56 K | 146.17 ± 0.92
183.54 K | 146.07 ± 0.91
184.52 K | 146.77 ± 0.94
185.47 K | 148 ± 0.94
186.45 K | 148.42 ± 0.93
187.42 K | 148.71 ± 0.94
188.4 K | 149.77 ± 0.95
189.37 K | 150.31 ± 0.95
190.34 K | 151.29 ± 0.97
191.32 K | 152.46 ± 0.97
192.29 K | 153.07 ± 0.96
193.26 K | 153.26 ± 0.96
194.23 K | 154.48 ± 0.98
195.2 K | 154.92 ± 0.97
196.17 K | 155.18 ± 0.98
197.14 K | 156.43 ± 0.98
198.1 K | 156.66 ± 0.97
199.07 K | 156.85 ± 0.99
